{"source": "PubChem BioAssay AID1117345", "note": "Calls of active or inactive are those of the source. No rule for the calls is given here.", "data": [{"test_system": "STC-1 cells GLP-1 secretion", "experiment": "half-maximal inhibitory concentration, STC-1 line, glucagon-like peptide-1 release potency, dose-dependent response (AID 1117345)", "values": [{"compound": "OCCN1CCN(CC/C=C2/c3ccccc3Sc3ccc(C(F)(F)F)cc32)CC1", "IC50": "> 40000 nM (inactive)"}, {"compound": "CC(=O)[O][Hg][c]1ccccc1", "IC50": "713 nM"}, {"compound": "Cc1ccc([N+](=O)[O-])[c]2c1[O][Hg]2", "IC50": "97.2 nM"}, {"compound": "CCCCCCCCCCCCCC[N+](C)(C)C", "IC50": "> 40000 nM (inactive)"}, {"compound": "CCCCCCCCCCCC(=O)[O][Sn]([CH2]CCC)([CH2]CCC)[O]C(=O)CCCCCCCCCCC", "IC50": "> 40000 nM (inactive)"}]}]}
